In brackets after ≈: the same amount, converted by molar mass. Numbered stars: 1 amine (or outer) side, 2 acyl side, 3 side chain; on linkers, the order of the positions; unused ones are H or OH. Bridge positions count the residues as written; N and C are the ends. Square brackets hold non-standard residues; d marks the D form. Peptide text beside a SMILES is read from it. * marks the point of attachment. X5 = C[C@@H](Oc1ccc([C@H](N[*:1])C(=O)[*:2])cc1)[C@](O)(/C=C/C(=O)[*:3])CBr; X4 = CC(Oc1ccc(C(N[*:1])C(=O)[*:2])cc1)C(O)(C=CC(=O)[*:3])CCl; Pentanoyl(2R-Me,3R-OH,4-Me) = CC(C)[C@@H](O)[C@@H](C)C(=O)*; d(aIle) = CC[C@H](C)[C@@H](N)C(=O)O; d(aThr) = C[C@@H](O)[C@@H](N)C(=O)O; NMeF = CN[CH](Cc1ccccc1)C(=O)O; X3 = CC(C)C(O)C(C)C(=O)*
Columns and labels:
[1] = test system: E. coli D21f2tolC Rif-, Stl-, CBR703-, Myx- and Lpm-resistant mutants; assay: Cross-resistance levels of Rif-, Stl-, CBR703-, Myx- and Lpm-resistant mutants; type: cell-based, Escherichia coli; conditions: wild-type reference of Figure 4C
[2] = test system: E. coli D21f2tolC Sal-resistant mutants; assay: Cross-resistance levels of Sal-resistant mutants; type: cell-based, Escherichia coli; conditions: wild-type reference of Figure 4B
[3] = molecular target: T1, E. coli RNAP holoenzyme (Escherichia coli, UniProt P0A8T7+P0A8V2); type: biochemical
[4] = molecular target: T1, E. coli RNAP holoenzyme; type: biochemical; remark: listed apart in the source
[5] = molecular target: Staphylococcus aureus RNAP (Staphylococcus aureus, UniProt Q5HID2+Q5HID3); assay: biochemical
[6] = test system: Haemophilus influenzae ATCC 49247; assay: microbe, parasite or virus in culture; type: cell-based; conditions: ATCC49247
[7] = test system: Neisseria gonorrhoeae ATCC 19424; assay: microbe, parasite or virus in culture; type: cell-based; conditions: ATCC19424
[8] = molecular target: Escherichia coli RNAP (Escherichia coli, UniProt P0A8T7+P0A8V2); assay: biochemical
[9] = test system: Enterobacter cloacae ATCC 13047; assay: microbe, parasite or virus in culture; type: cell-based; conditions: ATCC13047
[10] = molecular target: T1, E. coli RNAP holoenzyme; type: biochemical; remark: listed apart in the source
[11] = test system: Yersinia pestis CO92; assay: microbe, parasite or virus in culture; type: cell-based
[12] = test system: E. coli D21f2tolC plasmid-borne induced Sal-resistant mutants
[13] = test system: Bacillus anthracis Vollum 1B; assay: microbe, parasite or virus in culture; type: cell-based; conditions: VOLLUM1B
[14] = test system: E. coli D21f2tolC spontaneous Sal-resistant mutants; assay: Resistance levels of spontaneous Sal-resistant mutants; type: cell-based, Escherichia coli; conditions: for resistance level, all mutants: all 21 spontaneous Sal-resistant substitutions
[15] = test system: Burkholderia mallei CHN7; assay: microbe, parasite or virus in culture; type: cell-based
[16] = test system: wild-type or ΔTL E. coli RNAP core enzyme; type: biochemical, Escherichia coli
[17] = molecular target: Thermus thermophilus RNAP (Thermus thermophilus, UniProt Q8RQE8+Q8RQE9); assay: biochemical
[18] = test system: Pseudomonas aeruginosa ATCC 10145; assay: microbe, parasite or virus in culture; type: cell-based; conditions: ATCC10145
[19] = test system: E. coli D21f2tolC; assay: Resistance rates (fluctuation assays); conditions: each agent at 2 × MIC
[20] = test system: E. coli D21f2tolC; assay: Frequency of spontaneous Sal-resistant mutants; type: cell-based, Escherichia coli; conditions: E. coli D21f2tolC plated on agar containing Sal; listed as Sal
[21] = test system: E. coli D21f2tolC; assay: Macromolecular synthesis in bacterial cells in culture; type: cell-based, Escherichia coli; conditions: 2 x MIC; 0-30 min
Procedure: Macromolecular synthesis assays were performed essentially as in [Cotsonas King and Wu, 2009]. E. coli D21f2tolC ([Fralick and Burns-Keliher, 1994]) was cultured in 10 ml LB broth ([Sambrook and Russell, 2001]) at 37°C with shaking until OD600 = 0.4–0.8, and cultures were diluted with LB broth to OD600 = 0.167. Aliquots (90 µl) were dispensed into wells of a 96-well plate; were supplemented with 7 µl of pre-warmed 4 µCi/ml [^14C]-thymidine, 10 µCi/ml [^14C]-uracil, or 30 µCi/ml [^14C]-amino acid mix (PerkinElmer, Waltham, MA); were incubated 10 min at 37°C with shaking; were supplemented with 3 µl 3.3 µg/ml SalA in methanol (final concentration = 2 × MIC), 3 µl 13 µg/ml Rif in methanol (final concentration = 2 × MIC), or 3 µl solvent blank; and incubated at 37°C with shaking. At time points 0, 10, 20, and 30 min after the addition of SalA, Rif, or solvent blank, rows of samples were transferred to a second 96-well plate, containing 100 µl ice-cold 10% trichloroacetic acid (TCA) in each well, and the second plate was incubated on ice. 1 hr after the final time point, TCA precipitates were collected by filtration onto glass-fiber filters (Filtermat A; PerkinElmer; pre-rinsed twice with 5% TCA), washed with 2 × ∼300 µl 5% TCA, washed with 3 × ∼300 µl water, and washed with 2 × ∼300 µl 10% ethanol, using a Packard FilterMate 196 Cell Harvester with Matrix Filter upper head assembly (PerkinElmer). Filters were dried under a heat lamp, wrapped in a single layer of plastic wrap, and exposed to a storage phosphor screen for 18–19 hr, and analyzed by storage-phosphor scanning (Typhoon; GE Healthcare).

[22] = molecular target: T1, E. coli RNAP holoenzyme; assay: biochemical
[23] = test system: Moraxella catarrhalis ATCC 25238; assay: microbe, parasite or virus in culture; type: cell-based; conditions: ATCC25238
[24] = molecular target: T1, E. coli RNAP holoenzyme; type: biochemical; remark: listed apart in the source
[25] = test system: E. coli RNAP core enzyme; type: biochemical, Escherichia coli

Staphylococcus aureus RNAP, sequence (P0A0J0 whole entry): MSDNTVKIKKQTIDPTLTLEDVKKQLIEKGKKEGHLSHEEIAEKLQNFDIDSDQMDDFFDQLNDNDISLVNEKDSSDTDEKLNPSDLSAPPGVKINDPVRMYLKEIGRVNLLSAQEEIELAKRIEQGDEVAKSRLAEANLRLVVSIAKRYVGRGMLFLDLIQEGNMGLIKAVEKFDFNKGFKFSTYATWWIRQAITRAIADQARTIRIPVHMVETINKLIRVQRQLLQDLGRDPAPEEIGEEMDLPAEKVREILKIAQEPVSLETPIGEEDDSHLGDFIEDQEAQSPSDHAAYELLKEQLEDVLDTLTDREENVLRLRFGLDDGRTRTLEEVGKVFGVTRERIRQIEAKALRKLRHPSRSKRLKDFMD
Staphylococcus aureus RNAP, sequence (Q5HID3 whole entry): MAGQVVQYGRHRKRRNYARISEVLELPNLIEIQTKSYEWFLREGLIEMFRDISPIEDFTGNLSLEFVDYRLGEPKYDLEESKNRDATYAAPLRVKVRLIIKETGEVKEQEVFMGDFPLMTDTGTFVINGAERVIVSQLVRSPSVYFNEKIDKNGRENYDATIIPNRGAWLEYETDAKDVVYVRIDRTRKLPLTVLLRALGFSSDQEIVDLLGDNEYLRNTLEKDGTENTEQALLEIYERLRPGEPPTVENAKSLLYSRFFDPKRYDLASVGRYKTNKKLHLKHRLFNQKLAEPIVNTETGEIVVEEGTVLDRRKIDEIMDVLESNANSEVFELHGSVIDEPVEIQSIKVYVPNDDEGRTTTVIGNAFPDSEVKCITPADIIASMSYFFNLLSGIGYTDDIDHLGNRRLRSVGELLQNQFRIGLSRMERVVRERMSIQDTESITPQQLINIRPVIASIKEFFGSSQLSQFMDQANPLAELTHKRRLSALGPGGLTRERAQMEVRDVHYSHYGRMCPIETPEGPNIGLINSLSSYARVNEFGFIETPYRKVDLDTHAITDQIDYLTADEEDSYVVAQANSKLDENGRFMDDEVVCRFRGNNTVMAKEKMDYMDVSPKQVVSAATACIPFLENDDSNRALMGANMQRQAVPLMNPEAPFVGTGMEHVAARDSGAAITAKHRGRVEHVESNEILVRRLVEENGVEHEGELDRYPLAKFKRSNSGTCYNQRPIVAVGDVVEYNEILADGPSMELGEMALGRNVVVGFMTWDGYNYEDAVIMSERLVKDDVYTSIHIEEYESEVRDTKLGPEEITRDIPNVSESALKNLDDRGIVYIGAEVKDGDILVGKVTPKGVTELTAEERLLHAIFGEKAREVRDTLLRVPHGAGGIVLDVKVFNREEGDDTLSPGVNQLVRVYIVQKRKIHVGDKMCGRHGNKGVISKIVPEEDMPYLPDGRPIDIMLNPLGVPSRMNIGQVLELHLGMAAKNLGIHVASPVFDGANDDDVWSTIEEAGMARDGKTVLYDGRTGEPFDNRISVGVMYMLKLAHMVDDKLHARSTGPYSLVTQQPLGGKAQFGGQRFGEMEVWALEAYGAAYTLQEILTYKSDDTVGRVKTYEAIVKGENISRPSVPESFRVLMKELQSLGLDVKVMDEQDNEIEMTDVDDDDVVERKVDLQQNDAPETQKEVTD
Staphylococcus aureus RNAP, sequence (Q5HDY4 whole entry, further chain): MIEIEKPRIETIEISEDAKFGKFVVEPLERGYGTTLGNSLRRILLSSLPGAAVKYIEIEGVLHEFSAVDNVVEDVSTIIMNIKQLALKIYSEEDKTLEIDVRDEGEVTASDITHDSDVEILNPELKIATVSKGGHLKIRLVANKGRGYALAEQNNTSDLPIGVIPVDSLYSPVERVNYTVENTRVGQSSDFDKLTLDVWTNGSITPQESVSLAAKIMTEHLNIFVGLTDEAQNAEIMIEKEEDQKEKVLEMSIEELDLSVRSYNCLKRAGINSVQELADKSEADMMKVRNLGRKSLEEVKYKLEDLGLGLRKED
Staphylococcus aureus RNAP, sequence (Q5HID2 whole entry): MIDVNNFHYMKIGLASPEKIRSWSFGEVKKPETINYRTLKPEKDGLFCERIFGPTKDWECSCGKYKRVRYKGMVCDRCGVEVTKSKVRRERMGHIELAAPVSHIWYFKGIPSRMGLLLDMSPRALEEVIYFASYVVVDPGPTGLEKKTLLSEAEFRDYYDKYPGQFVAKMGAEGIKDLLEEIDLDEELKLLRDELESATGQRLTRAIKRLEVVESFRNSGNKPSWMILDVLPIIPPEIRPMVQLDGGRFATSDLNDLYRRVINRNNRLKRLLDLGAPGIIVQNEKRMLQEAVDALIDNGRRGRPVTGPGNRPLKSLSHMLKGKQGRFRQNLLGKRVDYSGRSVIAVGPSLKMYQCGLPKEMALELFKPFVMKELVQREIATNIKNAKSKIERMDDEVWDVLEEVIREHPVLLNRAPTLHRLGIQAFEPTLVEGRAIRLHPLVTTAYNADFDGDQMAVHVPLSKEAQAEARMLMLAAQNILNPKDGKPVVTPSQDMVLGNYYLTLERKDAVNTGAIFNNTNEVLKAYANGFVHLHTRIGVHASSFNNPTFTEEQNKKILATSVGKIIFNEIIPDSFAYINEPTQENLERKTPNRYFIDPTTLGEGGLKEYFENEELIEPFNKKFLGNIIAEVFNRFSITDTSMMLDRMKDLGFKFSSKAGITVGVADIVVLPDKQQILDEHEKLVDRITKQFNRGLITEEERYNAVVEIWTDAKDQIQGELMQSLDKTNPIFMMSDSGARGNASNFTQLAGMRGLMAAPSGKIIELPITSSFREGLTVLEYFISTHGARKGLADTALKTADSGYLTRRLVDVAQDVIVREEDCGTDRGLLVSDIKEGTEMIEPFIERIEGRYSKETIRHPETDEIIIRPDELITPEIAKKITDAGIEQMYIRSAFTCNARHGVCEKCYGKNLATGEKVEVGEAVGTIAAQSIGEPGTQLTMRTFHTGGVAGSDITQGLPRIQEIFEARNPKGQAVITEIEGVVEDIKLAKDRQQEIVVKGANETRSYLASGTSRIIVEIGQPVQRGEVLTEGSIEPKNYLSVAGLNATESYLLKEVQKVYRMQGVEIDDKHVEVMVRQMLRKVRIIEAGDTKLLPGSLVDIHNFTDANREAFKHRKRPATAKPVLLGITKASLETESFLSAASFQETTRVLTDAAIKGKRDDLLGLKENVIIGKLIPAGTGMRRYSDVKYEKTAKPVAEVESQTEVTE

Molecule: ONC(=Nc1ccccc1)c1cccc(C(F)(F)F)c1 [CBR703]
- MICwild-type [1]: 6.25 µg/mL
- MICwild-type [2]: 6.25 µg/mL

Molecule: CO[C@H]1/C=C/O[C@@]2(C)Oc3c(C)c(O)c4c(O)c(c(/C=N/N5CCN(C)CC5)c(O)c4c3C2=O)NC(=O)/C(C)=C\C=C\[C@H](C)[C@H](O)[C@@H](C)[C@@H](O)[C@@H](C)[C@H](OC(C)=O)[C@@H]1C [Rif, rifampin]
- MICwild-type [1]: 0.20 µg/mL
- effect on nucleotide addition in transcription elongation [3]: do not inhibit transcription elongation
- MICwild-type [2]: 0.20 µg/mL
- effect on nucleotide addition in primer-dependent transcription initiation [4]: does not inhibit the first nucleotide-addition step

Molecule: CC[C@H](C)[C@H]1NC(=O)[C@@H](NC(=O)[C@H](C)[C@H](O)C(C)C)[C@@H](C)OC(=O)[C@@H]2COC(=O)CNC(=O)/C=C/[C@](O)(CBr)[C@@H](C)Oc3ccc(cc3)[C@H](NC1=O)C(=O)N(C)[C@@H](Cc1ccccc1)C(=O)N[C@H]([C@@H](C)O)C(=O)N2 [Sal-Br] ({Pentanoyl(2R-Me,3R-OH,4-Me)}-T[d(aIle)][X5][NMeF][d(aThr)]S; ester 1-C; linker 3-6 via G)
- IC50 [5]: 700 nM
- MIC [6]: 6.25 µg/mL (≈ 5.68 µM)
- MIC [7]: 25 µg/mL (≈ 22.7 µM)
- IC50 [8]: 900 nM
- MIC [9]: 3.13 µg/mL (≈ 2.84 µM)

Molecule: CC[C@@H](C)[C@@H]1NC(=O)[C@H](NC(=O)[C@@H](C)[C@@H](O)C(C)C)[C@H](C)OC(=O)[C@H]2COC(=O)CNC(=O)/C=C/[C@@]3(CO3)[C@H](C)Oc3ccc(cc3)[C@H](NC1=O)C(=O)N(C)[C@H](Cc1ccccc1)C(=O)N[C@@H]([C@H](C)O)C(=O)N2 [SalA, Salinamide A]
- effect on nucleotide addition in de novo transcription initiation [10]: inhibits all nucleotide-addition steps
- MIC [11]: 50 µg/mL (≈ 49 µM)
- IC50 [5]: 200 nM
- MICwild-type [12]: 0.049 µg/mL
- MIC [13]: 25 µg/mL (≈ 24.5 µM)
- resistance level, all mutants [14]: ≥ 16 fold
- resistance level, nine high-level mutants ([14]; {}): ≥ 128 fold
- MIC [15]: 25 µg/mL (≈ 24.5 µM)
- requirement of RNAP trigger loop for inhibition [16]: does not require the RNAP active-center subregion referred to as the ‘trigger loop’
- IC50 [17]: > 100000 nM
- MIC [18]: 50 µg/mL (≈ 49 µM)
- resistance rate (per generation) ([19]; listed as Sal): 2 × 10^−9 per generation
- MICwild-type [1]: 0.049 µg/mL
- effect on nucleotide addition in transcription elongation [3]: inhibits nucleotide addition in transcription elongation
- frequency of spontaneous mutation to Sal-resistance [20]: ~1 × 10^−9
- MIC [6]: 6.25 µg/mL (≈ 6.13 µM)
- MIC [7]: 25 µg/mL (≈ 24.5 µM)
- IC50 [8]: 200 nM
- MICwild-type [2]: 0.049 µg/mL
- MIC [9]: 1.56 µg/mL (≈ 1.53 µM)
- effect on nucleotide addition in primer-dependent transcription initiation [4]: inhibits all nucleotide-addition steps
- effect on DNA synthesis ([14C]-thymidine incorporation) [21]: no effect on DNA synthesis
- effect on RNA synthesis ([14C]-uracil incorporation) [21]: inhibits RNA synthesis at the first time point following addition
- effect on protein synthesis ([14C]-amino acids incorporation) [21]: inhibits protein synthesis at later time points
- Ki [22]: 200 nM
- mode of inhibition [22]: noncompetitive
- MIC [23]: 50 µg/mL (≈ 49 µM)
- effect on formation of RNAP-promoter open complex (RPo) [24]: does not inhibit formation of a heparin-resistant RNAP-promoter open complex
- effect on pyrophosphorolysis [25]: inhibits not only the forward reaction of nucleotide addition but also the reverse reaction, pyrophosphorolysis

Molecule: CCC(C)C1NC(=O)C(NC(=O)C(C)C(O)C(C)C)C(C)OC(=O)C2COC(=O)CNC(=O)C=CC(O)(CCl)C(C)Oc3ccc(cc3)C(NC1=O)C(=O)N(C)C(Cc1ccccc1)C(=O)NC(C(C)O)C(=O)N2 (stereo not shown) [SalB, salinamide B] (X3-TI[X4][NMeF]TS; ester 1-C; linker 3-6 via G; configuration not given here)
- MIC [11]: > 50 µg/mL
- IC50 [5]: 800 nM
- MICwild-type [12]: 0.20 µg/mL
- MIC [13]: > 50 µg/mL
- resistance level, all mutants [14]: ≥ 16 fold
- MIC [15]: 50 µg/mL (≈ 47.3 µM)
- MIC [18]: > 50 µg/mL
- MIC [7]: 25 µg/mL (≈ 23.7 µM)
- IC50 [8]: 500 nM

Molecule: CNC(=O)[C@@H](C)[C@H]1C(=O)/C(=C(O)/C=C/C(C)=C/[C@@H](C)[C@H]2O[C@@]3(C)O[C@H](C=C[C@@]34CO4)[C@@H]2C)C(=O)N1[C@@H]1CC[C@H](O)[C@H](C)O1 [Stl, streptolydigin]
- MICwild-type [1]: 1.56 µg/mL
- MICwild-type [2]: 3.13 µg/mL

Molecule: lipiarmycin [Lpm]
- MICwild-type [1]: 1.56 µg/mL
- effect on nucleotide addition in transcription elongation [3]: do not inhibit transcription elongation
- MICwild-type [2]: 1.56 µg/mL

Molecule: myxopyronin
- resistance rate (per generation) [19]: 3 × 10^−10 per generation
- MICwild-type [1]: 0.20 µg/mL
- effect on nucleotide addition in transcription elongation [3]: do not inhibit transcription elongation
- MICwild-type [2]: 0.20 µg/mL

— publication PMC4029172 (eLife, 2014)
